# Patent US8026243B2, “[4,5′]Bipyrimidinyl-6,4′-diamine derivatives as protein kinase inhibitors” (Novartis AG, priority 2006, dated 2011)
# Biological target: T1, Ba/F3-TEL-FGFR3 cells (Homo sapiens, UniProt P22607)
# T1 construct: fused on or other part: The N-terminal oligomerising part of TEL (ETV6) is fused before the intracellular kinase part of FGFR3; P41212 (Transcription factor ETV6)
# Assay: FGFR3 cellular assay: proliferation of transformed Ba/F3-TEL-FGFR3 cells (AlamarBlue)
# Type: cell-based
# Conditions: 48 hours incubation, class symbols
# Description: Compounds of the invention are tested for their ability to inhibit transformed Ba/F3-TEL-FGFR3 cells proliferation, which is dependent on FGFR3 cellular kinase activity. Ba/F3-TEL-FGFR3 are cultured up to 800,000 cells/mL in suspension, with RPMI 1640 supplemented with 10% fetal bovine serum as the culture medium. Cells are dispensed into 384-well format plate at 5000 cell/well in […], culture medium. Compounds of the invention are dissolved and diluted in dimethylsulfoxide (DMSO). Twelve points 1:3 serial dilutions are made into DMSO to create concentrations gradient ranging typically from 10 mM to 0.05 μM. Cells are added with 50 nL of diluted compounds and incubated for 48 hours in cell culture incubator. AlamarBlue® (TREK Diagnostic Systems), which can be used to monitor the reducing environment created by proliferating cells, are added to cells at final concentration of 10%. After additional four hours of incubation in a 37° C. cell culture incubator, fluorescence signals from reduced AlamarBlue® (Excitation at 530 nm, Emission at 580 nm) are quantified on Analyst GT (Molecular Devices Corp.). IC50 values are calculated by linear regression analysis of the percentage inhibition of each compound at 12 concentrations.
# T1 sequence (P22607 whole entry, change not shown, the tested form may be a part): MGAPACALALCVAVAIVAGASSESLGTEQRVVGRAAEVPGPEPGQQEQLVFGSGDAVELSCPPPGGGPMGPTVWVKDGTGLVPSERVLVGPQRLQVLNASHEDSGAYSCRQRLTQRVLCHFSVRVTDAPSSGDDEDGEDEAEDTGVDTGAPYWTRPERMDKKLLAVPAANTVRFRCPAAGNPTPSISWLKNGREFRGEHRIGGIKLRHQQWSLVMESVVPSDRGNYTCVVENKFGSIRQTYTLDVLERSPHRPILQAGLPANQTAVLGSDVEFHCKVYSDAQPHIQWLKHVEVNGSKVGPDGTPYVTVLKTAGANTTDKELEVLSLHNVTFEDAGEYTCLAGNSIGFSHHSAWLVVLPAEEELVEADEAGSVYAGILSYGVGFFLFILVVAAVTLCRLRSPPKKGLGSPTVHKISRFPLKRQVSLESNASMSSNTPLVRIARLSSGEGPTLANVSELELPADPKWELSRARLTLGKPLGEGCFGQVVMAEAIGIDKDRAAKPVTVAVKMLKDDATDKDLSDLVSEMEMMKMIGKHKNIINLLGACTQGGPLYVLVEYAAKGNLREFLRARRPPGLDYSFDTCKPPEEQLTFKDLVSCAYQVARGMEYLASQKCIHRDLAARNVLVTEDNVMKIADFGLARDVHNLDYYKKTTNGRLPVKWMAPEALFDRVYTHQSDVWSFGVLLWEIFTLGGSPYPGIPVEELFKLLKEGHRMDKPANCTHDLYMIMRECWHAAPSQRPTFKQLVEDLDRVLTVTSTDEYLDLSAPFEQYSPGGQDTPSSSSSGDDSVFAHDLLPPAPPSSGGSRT
row,GI50 [nM],SMILES
1,100 to 250,"COc1cc(OC)c(Cl)c(Nc2ncncc2-c2cc(N)ncn2)c1Cl [Compound 1, N4′-(2,6-Dichloro-3,5-dimethoxy-phenyl)-[4,5′]bipyrimidinyl-6,4′-diamine]"
2,< 100,"COc1cc(OC)c(Cl)c(Nc2ncncc2-c2cc(Nc3ccc(CN4CCCC4)cn3)ncn2)c1Cl [Compound 2, N4′-(2,6-Dichloro-3,5-dimethoxy-phenyl)-N6-(5-pyrrolidin-1-ylmethyl-pyridin-2-yl)-[4,5′]bipyrimidinyl-6,4′-diamine]"
3,< 100,"COc1cc(OC)c(Cl)c(Nc2ncncc2-c2cc(Nc3ccc(CN4CCN(C)CC4)cn3)ncn2)c1Cl [Compound 3, N4′-(2,6-Dichloro-3,5-dimethoxy-phenyl)-N6-[5-(4-methyl-piperazin-1-ylmethyl)-pyridin-2-yl]-[4,5′]bipyrimidinyl-6,4′-diamine]"
4,< 100,"COc1cc(OC)c(Cl)c(Nc2ncncc2-c2cc(Nc3ccc(CN4CCOCC4)cn3)ncn2)c1Cl [Compound 4, N4′-(2,6-Dichloro-3,5-dimethoxy-phenyl)-N6-(5-morpholin-4-ylmethyl-pyridin-2-yl)-[4,5′]bipyrimidinyl-6,4′-diamine]"
5,< 100,"COc1cc(OC)c(Cl)c(Nc2ncncc2-c2cc(Nc3cc(CN4CCOCC4)ccn3)ncn2)c1Cl [Compound 5, N4′-(2,6-Dichloro-3,5-dimethoxy-phenyl)-N6-(4-morpholin-4-ylmethyl-pyridin-2-yl)-[4,5′]bipyrimidinyl-6,4′-diamine]"
6,< 100,"COc1cc(OC)c(Cl)c(Nc2ncncc2-c2cc(Nc3cc(CN4CCN(C)CC4)ccn3)ncn2)c1Cl [Compound 6, N4′-(2,6-Dichloro-3,5-dimethoxy-phenyl)-N6-[4-(4-methyl-piperazin-1-ylmethyl)-pyridin-2-yl]-[4,5′]bipyrimidinyl-6,4′-diamine]"
7,< 100,"COc1cc(OC)c(Cl)c(Nc2ncncc2-c2cc(Nc3ccc(CN(C)C)cn3)ncn2)c1Cl [Compound 7, N4′-(2,6-Dichloro-3,5-dimethoxy-phenyl)-N6-(5-dimethylaminomethyl-pyridin-2-yl)-[4,5′]bipyrimidinyl-6,4′-diamine]"
8,100 to 250,"COc1cc(OC)c(Cl)c(Nc2ncncc2-c2cc(NC(=O)NCCN3CCN(C)CC3)ncn2)c1Cl [Compound 8, 1-[4′-(2,6-Dichloro-3,5-dimethoxy-phenylamino)-[4,5′]bipyrimidinyl-6-yl]-3-[2-(4-methyl-piperazin-1-yl)-ethyl]-urea]"
9,< 100,"COc1cc(OC)c(Cl)c(Nc2ncncc2-c2cc(NC(=O)NCCN3CCOCC3)ncn2)c1Cl [Compound 9, 1-[4′-(2,6-Dichloro-3,5-dimethoxy-phenylamino)-[4,5′]bipyrimidinyl-6-yl]-3-(2-morpholin-4-yl-ethyl)-urea]"
10,< 100,"CCN1CCN(c2ccc(Nc3cc(-c4cncnc4Nc4c(Cl)c(OC)cc(OC)c4Cl)ncn3)cc2)CC1 [Compound 10, N4′-(2,6-Dichloro-3,5-dimethoxy-phenyl)-N6-[4-(4-ethyl-piperazin-1-yl)-phenyl]-[4,5′]bipyrimidinyl-6,4′-diamine]"
11,< 100,"COc1cc(OC)c(Cl)c(Nc2ncncc2-c2cc(Nc3ccc(N4CCOCC4)cc3)ncn2)c1Cl [Compound 11, N4′-(2,6-Dichloro-3,5-dimethoxy-phenyl)-N6-(4-morpholin-4-yl-phenyl)-[4,5′]bipyrimidinyl-6,4′-diamine]"
12,100 to 250,"COc1cc(OC)c(Cl)c(Nc2ncncc2-c2cc(NCCCN3CCOCC3)ncn2)c1Cl [Compound 12, N4′-(2,6-Dichloro-3,5-dimethoxy-phenyl)-N6-(3-morpholin-4-yl-propyl)-[4,5′]bipyrimidinyl-6,4′-diamine]"
13,250 to 500,"COc1cc(OC)c(Cl)c(Nc2ncncc2-c2cc(NCCCCN(C)C)ncn2)c1Cl [Compound 13, N4′-(2,6-Dichloro-3,5-dimethoxy-phenyl)-N6-(4-dimethylamino-butyl)-[4,5′]bipyrimidinyl-6,4′-diamine]"
14,250 to 500,"COc1cc(OC)c(Cl)c(Nc2ncncc2-c2cc(NCCN3CCN(C)CC3)ncn2)c1Cl [Compound 14, N4′-(2,6-Dichloro-3,5-dimethoxy-phenyl)-N6-[2-(4-methyl-piperazin-1-yl)-ethyl]-[4,5′]bipyrimidinyl-6,4′-diamine]"
15,< 100,"COc1cc(OC)c(Cl)c(Nc2ncncc2-c2cc(Nc3ccc(CN4CCN(C(N)=O)CC4)cn3)ncn2)c1Cl [Compound 15, 4-{6-[4′-(2,6-Dichloro-3,5-dimethoxy-phenylamino)-[4,5′]bipyrimidinyl-6-ylamino]-pyridin-3-ylmethyl}-piperazine-1-carboxylic acid amide]"
16,< 100,"COc1cc(OC)c(Cl)c(Nc2ncncc2-c2cc(Nc3ccc(CN4CCN(C(C)=O)CC4)cn3)ncn2)c1Cl [Compound 16, 1-(4-{6-[4′-(2,6-Dichloro-3,5-dimethoxy-phenylamino)-[4,5′]bipyrimidinyl-6-ylamino]-pyridin-3-ylmethyl}-piperazin-1-yl)-ethanone]"
17,< 100,"CCN(CC)CCOc1ccc(Nc2cc(-c3cncnc3Nc3c(Cl)c(OC)cc(OC)c3Cl)ncn2)cc1 [Compound 17, N4′-(2,6-Dichloro-3,5-dimethoxy-phenyl)-N6-[4-(2-diethylamino-ethoxy)-phenyl]-[4,5′]bipyrimidinyl-6,4′-diamine]"
18,< 100,"COc1cc(OC)c(Cl)c(Nc2ncncc2-c2cc(Nc3ccc(CCN4CCOCC4)cn3)ncn2)c1Cl [Compound 18, N4′-(2,6-Dichloro-3,5-dimethoxy-phenyl)-N6-[5-(2-morpholin-4-yl-ethyl)-pyridin-2-yl]-[4,5′]bipyrimidinyl-6,4′-diamine]"
19,< 100,"COc1cc(OC)c(Cl)c(Nc2ncncc2-c2cc(Nc3ccc(CN4CCN(C(=O)N(C)C)CC4)cn3)ncn2)c1Cl [Compound 19, 4-{6-[4′-(2,6-Dichloro-3,5-dimethoxy-phenylamino)-[4,5′]bipyrimidinyl-6-ylamino]-pyridin-3-ylmethyl}-piperazine-1-carboxylic acid dimethyl-amide]"
20,< 100,"CNC(=O)N1CCN(Cc2ccc(Nc3cc(-c4cncnc4Nc4c(Cl)c(OC)cc(OC)c4Cl)ncn3)nc2)CC1 [Compound 20, 4-{6-[4′-(2,6-Dichloro-3,5-dimethoxy-phenylamino)-[4,5′]bipyrimidinyl-6-ylamino]-pyridin-3-ylmethyl}-piperazine-1-carboxylic acid methylamide]"
21,250 to 500,"COc1cc(OC)c(Cl)c(Nc2ncncc2-c2cc(Nc3cncc(CN4CCOCC4)c3)ncn2)c1Cl [Compound 21, N4′-(2,6-Dichloro-3,5-dimethoxy-phenyl)-N6-(5-morpholin-4-ylmethyl-pyridin-3-yl)-[4,5′]bipyrimidinyl-6,4′-diamine]"
22,< 100,"COc1cc(OC)c(Cl)c(Nc2ncncc2-c2cc(Nc3ccc(CN4CCCCC4)cn3)ncn2)c1Cl [Compound 22, N4′-(2,6-Dichloro-3,5-dimethoxy-phenyl)-N6-(5-piperidin-1-ylmethyl-pyridin-2-yl)-[4,5′]bipyrimidinyl-6,4′-diamine]"
23,250 to 500,"COC(=O)c1cc(OC)c(Cl)c(Nc2ncncc2-c2cc(N)ncn2)c1Cl [Compound 23, 3-(6-Amino-[4,5′]bipyrimidinyl-4′-ylamino)-2,4-dichloro-5-methoxy-benzoic acid methyl ester]"
24,< 100,"CCNC(=O)c1cc(OC)c(Cl)c(Nc2ncncc2-c2cc(Nc3ccc(CN4CCOCC4)cn3)ncn2)c1Cl [Compound 24, 2,4-Dichloro-N-ethyl-5-methoxy-3-[6-(5-morpholin-4-ylmethyl-pyridin-2-ylamino)-[4,5′]bipyrimidinyl-4′-ylamino]-benzamide]"
25,< 100,"CCONC(=O)c1cc(OC)c(Cl)c(Nc2ncncc2-c2cc(Nc3ccc(CN4CCOCC4)cn3)ncn2)c1Cl [Compound 25, 2,4-Dichloro-N-ethoxy-5-methoxy-3-[6-(5-morpholin-4-ylmethyl-pyridin-2-ylamino)-[4,5′]bipyrimidinyl-4′-ylamino]-benzamide]"
26,250 to 500,"COc1cc(C(N)=O)c(Cl)c(Nc2ncncc2-c2cc(Nc3ccc(CN4CCOCC4)cn3)ncn2)c1Cl [Compound 26, 2,4-Dichloro-5-methoxy-3-[6-(5-morpholin-4-yl-methyl-pyridin-2-ylamino)-[4,5′]bipyrimidinyl-4′-ylamino]-benzamide]"
27,< 100,"COC(=O)c1cc(OC)c(Cl)c(Nc2ncncc2-c2cc(Nc3ccc(CN4CCOCC4)cn3)ncn2)c1Cl [Compound 27, 2,4-Dichloro-5-methoxy-3-[6-(5-morpholin-4-ylmethyl-pyridin-2-ylamino)-[4,5′]bipyrimidinyl-4′-ylamino]-benzoic acid methyl ester]"
28,< 100,"CCN(CC)Cc1ccc(Nc2cc(-c3cncnc3Nc3c(Cl)c(OC)cc(OC)c3Cl)ncn2)nc1 [Compound 28, N4′-(2,6-Dichloro-3,5-dimethoxy-phenyl)-N6-(5-diethylamino-methyl-pyridin-2-yl)-[4,5′]bipyrimidinyl-6,4′-diamine]"
29,< 100,"COc1cc(OC)c(Cl)c(Nc2ncncc2-c2cc(Nc3cccc(C(C)O)c3)ncn2)c1Cl (centres unmarked) [Compound 29, 1-{3-[4′-(2,6-Dichloro-3,5-dimethoxy-phenylamino)-[4,5′]bipyrimidinyl-6-ylamino]-phenyl}-ethanol]"
